This note sets out measurements from ChEMBL document CHEMBL1135459, “Novel class of potent 4-arylalkyl substituted 3-isoxazolol GABA(A) antagonists: synthesis, pharmacology, and molecular modeling” (J Med Chem, 2002).

Test [1] deals with Mus musculus. Nature of the test: Convulsant effect in mice after intracerebroventricular (icv) administration. The class given is functional. The following applies: central.
The species entered for test [2] is Mus musculus. Nature of the test: Electrophysiology using Whole-cell patch-clamp recordings in mouse embryos. In kind it is functional, organism-based.
Test [3] deals with Mus musculus. Nature of the test: Convulsant effect in mice after subcutaneous (sc) administration. The class given is functional.
Test [4] concerns the target Gamma-aminobutyric acid type B receptor subunit 1 (Rattus norvegicus, UniProt Q9Z0U4). Nature of the test: Affinity for GABA-B receptor by inhibiting GABA uptake into rat brain synaptosomes. In kind it is subcellular.
In test [5] the target is GABA-A receptor; anion channel. Nature of the test: Affinity for GABA-A receptor alpha by inhibiting binding of [3H]muscimol to rat brain synaptosomes. The class given is subcellular.

Sequence of Gamma-aminobutyric acid type B receptor subunit 1 (Q9Z0U4 whole entry): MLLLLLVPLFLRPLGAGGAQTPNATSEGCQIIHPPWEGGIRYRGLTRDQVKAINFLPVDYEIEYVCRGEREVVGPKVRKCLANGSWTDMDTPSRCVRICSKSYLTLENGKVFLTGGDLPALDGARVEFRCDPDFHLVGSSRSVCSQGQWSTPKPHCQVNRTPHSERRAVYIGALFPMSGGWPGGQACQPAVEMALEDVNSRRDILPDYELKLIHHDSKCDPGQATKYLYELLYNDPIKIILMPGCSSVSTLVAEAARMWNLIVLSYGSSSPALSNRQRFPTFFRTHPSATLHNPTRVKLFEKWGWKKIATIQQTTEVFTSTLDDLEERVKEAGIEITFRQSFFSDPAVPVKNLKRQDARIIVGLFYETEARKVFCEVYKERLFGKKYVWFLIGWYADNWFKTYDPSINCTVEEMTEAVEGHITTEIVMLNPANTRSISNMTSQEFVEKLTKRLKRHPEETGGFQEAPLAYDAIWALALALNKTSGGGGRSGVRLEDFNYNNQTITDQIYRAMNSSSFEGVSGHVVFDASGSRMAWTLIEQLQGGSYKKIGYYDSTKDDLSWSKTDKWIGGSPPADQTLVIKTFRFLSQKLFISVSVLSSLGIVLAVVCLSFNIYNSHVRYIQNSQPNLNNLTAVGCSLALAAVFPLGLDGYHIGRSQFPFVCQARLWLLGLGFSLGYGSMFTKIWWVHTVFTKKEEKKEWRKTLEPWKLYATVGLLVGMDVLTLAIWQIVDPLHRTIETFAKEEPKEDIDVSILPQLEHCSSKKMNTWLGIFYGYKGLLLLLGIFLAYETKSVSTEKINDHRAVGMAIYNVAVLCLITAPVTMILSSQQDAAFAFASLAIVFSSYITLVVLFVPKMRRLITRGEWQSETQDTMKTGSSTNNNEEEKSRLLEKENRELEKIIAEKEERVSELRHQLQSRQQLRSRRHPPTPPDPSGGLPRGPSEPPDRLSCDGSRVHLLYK

Usually ED50 stands for the dose at which the effect has come halfway, by size or by number of responders. The IC50 is the concentration that gives 50% inhibition. Lower therefore signals inhibition by little substance. For the compound `Oc1noc(C2CCNCC2)c1Cc1ccc2ccccc2c1`, the ED50 in test [1] was 0.024 µmol/kg; in test [3] it was over 51 µmol/kg. The IC50 in test [2] is 0.37 µM; in test [4] it was over 10 µM.

Usually Ki stands for the dissociation constant of the complex between target and ligand, obtained from inhibition or displacement. Low values mean higher affinity, high ones lower affinity. Regarding `Oc1noc(C2CCNCC2)c1CCCc1ccccc1`, the concentration for half-maximal inhibition (IC50) in test [2] is 0.53 µM; in test [4], over 100 µM. Further, in test [5], the Ki came out at 1.1 µM.

Regarding `CCCCc1c(O)noc1C1CCNCC1`, the values for the half-maximal inhibitory concentration (IC50) in test [2] and in test [4] were 3 µM and over 100 µM, respectively.

Take `Oc1noc(C2CCNCC2)c1CCc1ccccc1`: the half-inhibitory concentration (IC50) in test [2] is 4.1 µM; in test [4] it was over 10 µM. This compound came in with a Ki in test [5] of 5 µM.

Turning to `CCCc1c(O)noc1C1CCNCC1`, the half-inhibitory concentration (IC50) was 4.6 µM in test [2] and over 100 µM in test [4]. The compound also returned a Ki in test [5] of 6.6 µM.

Take `Oc1noc(C2CCNCC2)c1Cc1ccccc1`: the half-maximal inhibitory concentration (IC50) in test [2] was 4 µM; in test [4] it was over 100 µM.

As for `Oc1noc(C2CCNCC2)c1Cc1c2ccccc2cc2ccccc12`, the values for the IC50 in test [2] and in test [4] were 1.3 µM and over 10 µM, respectively.

In the case of `CCc1c(O)noc1C1CCNCC1`, the half-inhibitory concentration (IC50) was 10.3 µM in test [2] and over 100 µM in test [4].

Regarding `CCCCCCc1c(O)noc1C1CCNCC1`, the IC50 in test [2] was 1.1 µM; in test [4] it was over 100 µM. Also, in test [5], the inhibition constant Ki was 4.5 µM.

As to `CC1(c2cc(O)no2)CCNCC1`, the Ki in test [5] worked out at 37 µM. Besides, the IC50 in test [4] was over 100 µM.

With `Oc1noc(C2CCNCC2)c1Cc1ccc(-c2ccccc2)cc1`, the results for the half-maximal inhibitory concentration (IC50) in test [2] and in test [4] were 0.71 µM and over 10 µM, respectively. In test [5], this compound returned a Ki of 0.4 µM.

Turning to `Oc1noc(C2CCNCC2)c1Cc1cccc2ccccc12`, the 50% inhibitory concentration (IC50) is 0.48 µM in test [2] and over 10 µM in test [4]. The compound also had an inhibition constant (Ki) in test [5] of 0.1 µM.

Take `Oc1noc(C2CCNCC2)c1CCC(c1ccccc1)c1ccccc1`: the figures for the ED50 in test [1] and in test [3] were 0.21 µmol/kg and over 45 µmol/kg, respectively. Also, the IC50 in test [2] is 0.02 µM; in test [4], over 10 µM. Also, affinity in test [5] was put at a Ki of 0.068 µM.

Regarding `Oc1noc(C2CCNCC2)c1CCc1ccc2ccccc2c1`, the IC50 in test [2] is 0.89 µM; in test [4] it was over 10 µM.

`Oc1noc(C2CCNCC2)c1CCCC(c1ccccc1)c1ccccc1`: the IC50 in test [2] was 0.05 µM; in test [4], over 100 µM. The inhibition constant (Ki) in test [5] was 0.7 µM.

Turning to `Oc1noc(C2CCNCC2)c1CCc1cccc2ccccc12`, the IC50 is 1.5 µM in test [2] and over 10 µM in test [4]. The Ki in test [5] was found to be 1.7 µM.

On to `Oc1noc(C2CCNCC2)c1CC1CCCCC1`, for which the IC50 in test [2] was 1.1 µM; in test [4], over 100 µM. This compound had an inhibition constant Ki in test [5] of 4.9 µM.

In the case of `Cc1c(O)noc1C1CCNCC1`, the figures for the IC50 in test [2] and in test [4] were 26 µM and over 100 µM, respectively.

As to `Oc1noc(C2CCNCC2)c1CC(c1ccccc1)c1ccccc1`, the IC50 in test [2] is 0.81 µM; in test [4] it was over 100 µM. Moreover, the affinity in test [5] corresponds to a Ki of 0.36 µM.

Regarding `CCCCCCCCc1c(O)noc1C1CCNCC1`, the 50% inhibitory concentration (IC50) is 0.44 µM in test [2] and over 100 µM in test [4]. In addition, the Ki in test [5] was 1.8 µM.

Take `Oc1noc(C2CCNCC2)c1C(c1ccccc1)c1ccccc1`: the IC50 in test [2] was 0.78 µM; in test [4] it was over 10 µM. Further, in test [5], the Ki worked out at 0.96 µM.
